Measurements reported in ChEMBL document CHEMBL5055669, “Development of Potent and Selective Agonists for Complement C5a Receptor 1 with In Vivo Activity” (J Med Chem, 2021).
Calls of active or inactive are those of the source. The rule behind the calls is not given here. Square brackets hold non-standard residues; d marks the D form. Peptide text beside a SMILES is read from it. Nva = CCC[C@H](N)C(=O)O; Abu = CC[C@H](N)C(=O)O

Legend:
[1] = molecular target: T1, C5a anaphylatoxin chemotactic receptor 1 (Mus musculus) (UniProt P30993); test: Agonist activity at C5aR1 in mouse RAW264.7 cells assessed as induction of ERK1/2 phosphorylation at Thr202/Tyr204 residues at up to 100 uM incubated for 10 mins in presence of JPE1375 by AlphaLISA assay; assay type: functional, cell-based
T1 sequence (whole entry): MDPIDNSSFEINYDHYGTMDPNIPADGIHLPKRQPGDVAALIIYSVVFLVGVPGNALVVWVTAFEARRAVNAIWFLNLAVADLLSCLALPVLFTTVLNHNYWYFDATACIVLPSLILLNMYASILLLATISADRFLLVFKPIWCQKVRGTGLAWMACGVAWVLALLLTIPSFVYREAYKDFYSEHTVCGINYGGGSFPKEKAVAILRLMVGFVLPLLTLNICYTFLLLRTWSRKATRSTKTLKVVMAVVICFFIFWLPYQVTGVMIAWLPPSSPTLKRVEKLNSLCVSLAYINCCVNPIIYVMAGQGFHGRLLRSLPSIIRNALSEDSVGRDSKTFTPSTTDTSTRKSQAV

[2] = molecular target: T2, C5a anaphylatoxin chemotactic receptor 1 (Mus musculus, UniProt P30993); test: Agonist activity at C5aR1 in mouse RAW264.7 cells assessed as induction of ERK1/2 phosphorylation at Thr202/Tyr204 residues incubated for 10 mins by AlphaLISA assay; assay type: functional, cell-based
T2 sequence (P30993 whole entry): T1 sequence (whole entry)

[3] = molecular target: T3, C3a anaphylatoxin chemotactic receptor (Homo sapiens, UniProt Q16581); test: Agonist activity at human C3aR expressed in CHO cells assessed as induction of ERK1/2 phosphorylation at Thr202/Tyr204 residues incubated for 10 mins by AlphaLISA assay; assay type: functional, cell-based
T3 sequence (Q16581 whole entry): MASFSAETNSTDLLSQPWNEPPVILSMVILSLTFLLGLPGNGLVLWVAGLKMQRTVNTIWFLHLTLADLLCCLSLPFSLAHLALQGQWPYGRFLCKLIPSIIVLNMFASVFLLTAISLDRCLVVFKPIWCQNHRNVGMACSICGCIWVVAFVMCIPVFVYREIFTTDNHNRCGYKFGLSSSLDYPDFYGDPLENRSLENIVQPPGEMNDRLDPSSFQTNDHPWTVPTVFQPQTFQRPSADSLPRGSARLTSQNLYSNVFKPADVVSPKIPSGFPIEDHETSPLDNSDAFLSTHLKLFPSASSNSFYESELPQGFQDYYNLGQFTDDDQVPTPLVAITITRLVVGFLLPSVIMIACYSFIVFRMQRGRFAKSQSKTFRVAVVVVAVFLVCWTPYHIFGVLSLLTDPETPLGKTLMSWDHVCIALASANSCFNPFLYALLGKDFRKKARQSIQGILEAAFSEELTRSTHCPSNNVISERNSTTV

[4] = molecular target: T1, C5a anaphylatoxin chemotactic receptor 1 (Mus musculus); test: Agonist activity at C5aR1 in mouse RAW264.7 cells assessed as induction of ERK1/2 phosphorylation at Thr202/Tyr204 residues at up to 100 uM incubated for 10 mins by AlphaLISA assay; assay type: functional, cell-based
[5] = molecular target: T4, C5a anaphylatoxin chemotactic receptor 1 (Homo sapiens, UniProt P21730); test: Agonist activity at human C5aR1 expressed in CHO cells assessed as induction of ERK1/2 phosphorylation at Thr202/Tyr204 residues incubated for 10 mins by AlphaLISA assay; assay type: functional, cell-based
T4 sequence (P21730 whole entry): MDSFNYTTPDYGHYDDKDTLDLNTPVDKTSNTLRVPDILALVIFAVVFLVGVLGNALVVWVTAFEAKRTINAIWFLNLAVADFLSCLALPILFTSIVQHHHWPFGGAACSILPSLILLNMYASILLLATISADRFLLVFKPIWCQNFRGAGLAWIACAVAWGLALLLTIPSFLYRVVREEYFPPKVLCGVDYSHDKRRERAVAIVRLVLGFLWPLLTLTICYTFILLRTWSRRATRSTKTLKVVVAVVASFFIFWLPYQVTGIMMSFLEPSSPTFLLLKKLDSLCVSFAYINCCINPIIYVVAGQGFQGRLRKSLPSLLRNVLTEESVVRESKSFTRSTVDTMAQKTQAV

Homo sapiens = species: Homo sapiens; test: Selectivity ratio of EC50 for agonist activity at human C3aR expressed in CHO cells to EC50 for agonist activity at human C5aR1 expressed in CHO cells; assay type: cell-based
MDM [6] = test: Antiinflammatory activity in human MDM cells assessed as suppression of LPS-induced IL-6 production at 1 uM measured after 24 hrs by ELISA; assay type: functional, cell-based
Mus musculus = test: Antiinflammatory activity in C57BL/6J mouse assessed as polymorphonuclear leucocyte mobilization at 50 ug/kg, iv measured after 30 mins by hemacolor-staining based microscopic analysis relative to control; assay type: functional; conditions: dose 50 µg/kg, 0.5 h
[7] = Ratio of EC50 for agonist activity at C5aR1 in mouse RAW264.7 cells to EC50 for agonist activity at human C5aR1 expressed in CHO cells; assay type: cell-based
MDM [8] = test: Antiinflammatory activity in human MDM cells assessed as suppression of LPS-induced TNFalpha production at 1 uM measured after 24 hrs by ELISA; assay type: functional, cell-based

Compound | EC50 ([3]; read-out: pEC50 (converted)) [nM] | EC50 [5] [nM] | Ratio EC50 (Homo sapiens) | also measured
CC(=O)N[C@@H](Cc1ccccc1)C(=O)N[C@@H](CCCCN)C(=O)N1CCC[C@H]1C(=O)N[C@@H](CC(C)C)C(=O)N[C@@H](C)C(=O)N[C@@H](C)C(=O)N[C@H](C)C(=O)N[C@@H](CCCNC(=N)N)C(=O)O (Ac-FKPLAA[dA]R-OH) |  |  |  | Activity [1]: inactive; EC50 [2]: 22900 nM
CC(C)C[C@H](NC(=O)[C@@H]1CCCN1C(=O)[C@H](CCCCN)NC(=O)[C@@H](N)Cc1ccccc1)C(=O)N[C@@H](C)C(=O)N[C@@H](C)C(=O)N[C@H](C)C(=O)N[C@@H](CCCNC(=N)N)C(N)=O |  |  |  | EC50 ([3]; read-out: EC50): > 100000 nM
CC(C)C[C@H](NC(=O)[C@@H]1CCCN1C(=O)[C@H](CCCCN)NC(=O)[C@@H](N)Cc1ccccc1)C(=O)N[C@@H](C)C(=O)N[C@@H](C)C(=O)N[C@H](C)C(=O)N[C@@H](CCCNC(=N)N)C(=O)O | 131000 |  |  | Activity [4]: inactive
CCC[C@H](NC(=O)[C@H](C)NC(=O)[C@H](CC(C)C)NC(=O)[C@@H]1CCCN1C(=O)[C@H](CCCCN)NC(=O)[C@H](Cc1ccccc1)NC(C)=O)C(=O)N[C@@H](C)C(=O)N[C@@H](CCCNC(=N)N)C(=O)O (Ac-FKPLA[Nva]AR-OH) | 752 |  |  | 
CC(C)C[C@H](NC(=O)[C@H](C)NC(=O)[C@H](CC(C)C)NC(=O)[C@@H]1CCCN1C(=O)[C@H](CCCCN)NC(=O)[C@@H](N)Cc1ccccc1)C(=O)N[C@H](C)C(=O)N[C@@H](CCCNC(=N)N)C(=O)O | 435 | 4.35 | 109 | 
CC(C)C[C@H](NC(=O)[C@@H]1CCCN1C(=O)[C@H](CC(C)C)NC(=O)[C@@H]1CCCN1C(=O)[C@H](C)NC(=O)[C@@H](N)Cc1ccccc1)C(=O)N[C@H](C)C(=O)N[C@@H](CCCNC(=N)N)C(=O)O | 282 | 708 | 0.4 | 
CC(=O)N[C@@H](Cc1ccccc1)C(=O)N[C@H]1CCCCNC(=O)[C@H](CCCNC(=N)N)NC(=O)[C@@H](C)NC(=O)[C@H](C)NC(=O)[C@H](C)NC(=O)[C@H](CC(C)C)NC(=O)[C@@H]2CCCN2C1=O |  |  |  | EC50 ([3]; read-out: EC50): > 100000 nM
CC(C)C[C@H](NC(=O)[C@@H]1CCCN1C(=O)[C@H](CC(C)C)NC(=O)[C@H](C)NC(=O)[C@H](CCCCN)NC(=O)[C@@H](N)Cc1ccccc1)C(=O)N[C@H](C)C(=O)N[C@@H](CCCNC(=N)N)C(=O)O | 61.9 | 19.5 | 3.26 | 
CC(=O)N[C@@H](Cc1ccccc1)C(=O)N[C@@H](CCCCN)C(=O)N1CCC[C@H]1C(=O)N[C@@H](CC(C)C)C(=O)N[C@@H](C)C(=O)N[C@@H](Cc1ccccc1)C(=O)N[C@H](C)C(=O)N[C@@H](CCCNC(=N)N)C(=O)O (Ac-FKPLAF[dA]R-OH) | 3760 | 73.3 | 51.5 | 
CC(C)C[C@H](NC(=O)[C@H](C)NC(=O)[C@@H](NC(=O)[C@@H]1CCCN1C(=O)[C@H](CCCCN)NC(=O)[C@@H](N)Cc1ccccc1)[C@@H](C)O)C(=O)N[C@H](C)C(=O)N[C@@H](CCCNC(=N)N)C(=O)O | 37.1 | 10.4 | 3.7 | 
CC(C)C[C@H](NC(=O)[C@@H]1CCCN1C(=O)[C@H](CCCCN)NC(=O)[C@@H](N)Cc1ccccc1)C(=O)N1CCC[C@H]1C(=O)N[C@@H](C)C(=O)N[C@H](C)C(=O)N[C@@H](CCCNC(=N)N)C(=O)O | 54800 |  |  | 
CC(C)C[C@H](NC(=O)[C@@H]1CCCN1C(=O)[C@H](CCCCN)NC(=O)[C@@H](N)Cc1ccccc1)C(=O)N[C@@H](C)C(=O)N[C@@H](C)C(=O)N[C@@H](C)C(=O)N[C@@H](CCCNC(=N)N)C(=O)O | 17300 |  |  | 
CC(C)C[C@H](NC(=O)[C@@H]1CCCN1C(=O)[C@H](CC(C)C)NC(=O)[C@@H]1CCCN1C(=O)[C@H](CCCCN)NC(=O)[C@@H](N)Cc1ccccc1)C(=O)N[C@H](C)C(=O)N[C@@H](CCCNC(=N)N)C(=O)O (H-FKPLPL[dA]R-OH) | 129 |  |  | 
CC[C@@H](C)[C@@H](NC(=O)[C@H](C)NC(=O)[C@H](CC(C)C)NC(=O)[C@@H]1CCCN1C(=O)[C@H](CCCCN)NC(=O)[C@H](Cc1ccccc1)NC(C)=O)C(=O)N[C@@H](C)C(=O)N[C@@H](CCCNC(=N)N)C(=O)O | 429 | 1.54 | 214 | 
C[C@H](NC(=O)[C@H](C)NC(=O)[C@@H](NC(=O)[C@@H]1CCCN1C(=O)[C@H](CCCCN)NC(=O)[C@@H](N)Cc1ccccc1)[C@@H](C)O)C(=O)N[C@H](C)C(=O)N[C@@H](CCCNC(=N)N)C(=O)O | 7010 | 895 | 7.8 | 
CC(C)C[C@H](NC(=O)[C@H](C)NC(=O)[C@@H](NC(=O)[C@@H]1CCCN1C(=O)[C@H](CCCNC(=N)N)NC(=O)[C@@H](N)Cc1ccccc1)[C@@H](C)O)C(=O)N[C@H](C)C(=O)N[C@@H](CCCNC(=N)N)C(=O)O | 9.04 | 24.4 | 0.4 | 
CC[C@H](NC(=O)[C@H](C)NC(=O)[C@H](CC(C)C)NC(=O)[C@@H]1CCCN1C(=O)[C@H](CCCCN)NC(=O)[C@H](Cc1ccccc1)NC(C)=O)C(=O)N[C@H](C)C(=O)N[C@@H](CCCNC(=N)N)C(=O)O (Ac-FKPLA[Abu][dA]R-OH) | 14500 | 5.78 | 2420 | Activity (MDM [6]): Active; Activity (Mus musculus): 41%; Activity [1]: inactive; Ratio EC50 [7]: 1000; Activity (MDM [8]): Active; EC50 [2]: 2300 nM
CC(C)C[C@H](NC(=O)[C@@H]1CCCN1C(=O)[C@H](C)NC(=O)[C@@H]1CCCN1C(=O)[C@H](CCCCN)NC(=O)[C@@H](N)Cc1ccccc1)C(=O)N[C@H](C)C(=O)N[C@@H](CCCNC(=N)N)C(=O)O | 11 | 44.4 | 0.25 | 
CC(=O)N[C@@H](Cc1ccccc1)C(=O)N[C@@H](CCCCN)C(=O)N1CCC[C@H]1C(=O)N[C@@H](CC(C)C)C(=O)N[C@@H](C)C(=O)N[C@H](C(=O)N[C@H](C)C(=O)N[C@@H](CCCNC(=N)N)C(=O)O)[C@@H](C)O | 69800 | 34.1 | 2050 | 
CC(C)C[C@H](NC(=O)[C@@H]1CCCN1C(=O)[C@H](CC(C)C)NC(=O)[C@@H]1CCCN1C(=O)[C@H](CCCCN)NC(=O)[C@H](C)N)C(=O)N[C@H](C)C(=O)N[C@@H](CCCNC(=N)N)C(=O)O | 631 | 19100 | 0.033 | 
CC(C)C[C@H](NC(=O)[C@H](C)NC(=O)[C@H](CC(C)C)NC(=O)[C@@H]1CCCN1C(=O)[C@H](CCCCN)NC(=O)[C@H](C)N)C(=O)N[C@H](C)C(=O)N[C@@H](CCCNC(=N)N)C(=O)O | 532 | 1430 | 0.4 | 
